According to publication PMC5418314, “First-in-human phase I study of SOR-C13, a TRPV6 calcium channel inhibitor, in patients with advanced solid tumors” (Investigational New Drugs, 2017):
Like-named read-outs stand apart in the source and are kept apart here. Ends that are not written are not given here.

How the values were obtained:
[1] = Phase I plasma pharmacokinetics; assay type: in vivo, human; settings: human, plasma, iv, 90-min IV infusion, plasma LC-MS
Protocol: Blood samples were taken on Days 1, 3, 8 and 10 of Cycle 1 to assess the pharmacokinetic (PK) profile of SOR-C13 at the various doses used. Plasma samples for the IV 20 min infusion were taken at pre-infusion, 5, 15 min after the start of infusion and post-infusion at 2, 5, 10 and 30 min and 1, 4 h. Plasma samples for SOR-C13 analysis for the 90 min infusion were taken pre-infusion, at 5, 15 and 45 min after the start of infusion, and at 2, 5, 10 and 30 min post-infusion. Since the infusion for the majority of patients, and further studies will be IV 90 min only PK data for this infusion time are presented. Validated liquid chromatography-mass spectrometry analysis provided the plasma concentration/time data.

[2] = test system: voltage-gated calcium channels; assay: voltage-gated calcium channel activity; assay type: biochemical
[3] = GLP toxicology study, daily IV bolus for 28 days, dog; assay type: in vivo, beagle dogs
Protocol: (§1) Anatomical pathology provided a No Observable Adverse Effect Level (NOAEL) of 200 mg/kg/day for rats. […] With results indicating antitumor activity in animal studies, a small toxicological footprint, a novel oncology target and a mechanism of action supported by the literature, SOR-C13 was formulated for intravenous injection (IV) for clinical evaluation. Here we present results of the ‘first-in-human’, Phase I clinical study evaluating SOR-C13 in adults with advanced solid tumors of epithelial origin refractory to all standard-of-care treatments.

[4] = peptide degradation in human plasma; assay type: in vitro ADME
[5] = GLP toxicology study, daily IV bolus for 28 days, rat; assay type: in vivo
Protocol: as §1

[6] = half-life in the blood compartment, rat; assay type: in vivo
[7] = test system: voltage-gated sodium channels; assay: voltage-gated sodium channel activity; assay type: biochemical
[8] = half-life in the blood compartment, mice; assay type: in vivo

KEFLHPSKVDLPR [SOR-C13]
Cmax ([1]; 4.13 mg/kg, Cohort 5: 4.13 mg/kg, N = 3, Cycle 1 Day 1, read-out: Peak plasma concentration, Mean (SD)): 139 ng/mL | Cmax ([1]; 4.13 mg/kg, Cohort 5: 4.13 mg/kg, N = 3, Cycle 1 Day 1, read-out: Peak plasma concentration, Median): 42 ng/mL | Tmax ([1]; 4.13 mg/kg, Cohort 5: 4.13 mg/kg, N = 3, Cycle 1 Day 1, read-out: Time to peak plasma concentration, Mean (SD)): 25 min | Tmax ([1]; 4.13 mg/kg, Cohort 5: 4.13 mg/kg, N = 3, Cycle 1 Day 1, read-out: Time to peak plasma concentration, Median): 15 min | AUC(0-t) ([1]; 4.13 mg/kg, Cohort 5: 4.13 mg/kg, N = 3, Cycle 1 Day 3, read-out: AUCtau, Mean (SD)): 373 ng·h/mL | AUC(0-t) ([1]; 4.13 mg/kg, Cohort 5: 4.13 mg/kg, N = 3, Cycle 1 Day 3, read-out: AUCtau, Median): 403 ng·h/mL | Cmax ([1]; 4.13 mg/kg, Cohort 5: 4.13 mg/kg, N = 3, Cycle 1 Day 3, read-out: Peak plasma concentration, Mean (SD)): 369 ng/mL | Cmax ([1]; 4.13 mg/kg, Cohort 5: 4.13 mg/kg, N = 3, Cycle 1 Day 3, read-out: Peak plasma concentration, Median): 403 ng/mL | Tmax ([1]; 4.13 mg/kg, Cohort 5: 4.13 mg/kg, N = 3, Cycle 1 Day 3, read-out: Time to peak plasma concentration, Mean (SD)): 35 min | Tmax ([1]; 4.13 mg/kg, Cohort 5: 4.13 mg/kg, N = 3, Cycle 1 Day 3, read-out: Time to peak plasma concentration, Median): 45 min | AUC(0-t) ([1]; 4.13 mg/kg, Cohort 5: 4.13 mg/kg, N = 3, Cycle 1 Day 8, read-out: AUCtau, Mean (SD)): 197 ng·h/mL | AUC(0-t) ([1]; 4.13 mg/kg, Cohort 5: 4.13 mg/kg, N = 3, Cycle 1 Day 8, read-out: AUCtau, Median): 245 ng·h/mL | Cmax ([1]; 4.13 mg/kg, Cohort 5: 4.13 mg/kg, N = 3, Cycle 1 Day 8, read-out: Peak plasma concentration, Mean (SD)): 212 ng/mL | Cmax ([1]; 4.13 mg/kg, Cohort 5: 4.13 mg/kg, N = 3, Cycle 1 Day 8, read-out: Peak plasma concentration, Median): 264 ng/mL | Tmax ([1]; 4.13 mg/kg, Cohort 5: 4.13 mg/kg, N = 3, Cycle 1 Day 8, read-out: Time to peak plasma concentration, Mean (SD)): 18.2 min | Tmax ([1]; 4.13 mg/kg, Cohort 5: 4.13 mg/kg, N = 3, Cycle 1 Day 8, read-out: Time to peak plasma concentration, Median): 4.8 min | AUC(0-t) ([1]; 4.13 mg/kg, Cohort 5: 4.13 mg/kg, N = 3, Cycle 1 Day 10, read-out: AUCtau, Mean (SD)): 273 ng·h/mL | AUC(0-t) ([1]; 4.13 mg/kg, Cohort 5: 4.13 mg/kg, N = 3, Cycle 1 Day 10, read-out: AUCtau, Median): 324 ng·h/mL | Cmax ([1]; 4.13 mg/kg, Cohort 5: 4.13 mg/kg, N = 3, Cycle 1 Day 10, read-out: Peak plasma concentration, Mean (SD)): 280 ng/mL | Cmax ([1]; 4.13 mg/kg, Cohort 5: 4.13 mg/kg, N = 3, Cycle 1 Day 10, read-out: Peak plasma concentration, Median): 295 ng/mL | Tmax ([1]; 4.13 mg/kg, Cohort 5: 4.13 mg/kg, N = 3, Cycle 1 Day 10, read-out: Time to peak plasma concentration, Mean (SD)): 21.6 min | AUC(0-t) ([1]; 6.2 mg/kg, Cohort 6: 6.2 mg/kg, N = 6, Cycle 1 Day 1, read-out: AUCtau, Mean (SD)): 1130 ng·h/mL | AUC(0-t) ([1]; 6.2 mg/kg, Cohort 6: 6.2 mg/kg, N = 6, Cycle 1 Day 1, read-out: AUCtau, Median): 570 ng·h/mL | Cmax ([1]; 6.2 mg/kg, Cohort 6: 6.2 mg/kg, N = 6, Cycle 1 Day 1, read-out: Peak plasma concentration, Mean (SD)): 1150 ng/mL | Cmax ([1]; 6.2 mg/kg, Cohort 6: 6.2 mg/kg, N = 6, Cycle 1 Day 1, read-out: Peak plasma concentration, Median): 682 ng/mL | Tmax ([1]; 6.2 mg/kg, Cohort 6: 6.2 mg/kg, N = 6, Cycle 1 Day 1, read-out: Time to peak plasma concentration, Mean (SD)): 56.6 min | AUC(0-t) ([1]; 6.2 mg/kg, Cohort 6: 6.2 mg/kg, N = 6, Cycle 1 Day 3, read-out: AUCtau, Mean (SD)): 1100 ng·h/mL | AUC(0-t) ([1]; 6.2 mg/kg, Cohort 6: 6.2 mg/kg, N = 6, Cycle 1 Day 3, read-out: AUCtau, Median): 904 ng·h/mL | Cmax ([1]; 6.2 mg/kg, Cohort 6: 6.2 mg/kg, N = 6, Cycle 1 Day 3, read-out: Peak plasma concentration, Mean (SD)): 1020 ng/mL | Cmax ([1]; 6.2 mg/kg, Cohort 6: 6.2 mg/kg, N = 6, Cycle 1 Day 3, read-out: Peak plasma concentration, Median): 843 ng/mL | Tmax ([1]; 6.2 mg/kg, Cohort 6: 6.2 mg/kg, N = 6, Cycle 1 Day 3, read-out: Time to peak plasma concentration, Mean (SD)): 27.7 min | Tmax ([1]; 6.2 mg/kg, Cohort 6: 6.2 mg/kg, N = 6, Cycle 1 Day 3, read-out: Time to peak plasma concentration, Median): 9.9 min | AUC(0-t) ([1]; 6.2 mg/kg, Cohort 6: 6.2 mg/kg, N = 6, Cycle 1 Day 8, read-out: AUCtau, Mean (SD)): 1340 ng·h/mL | AUC(0-t) ([1]; 6.2 mg/kg, Cohort 6: 6.2 mg/kg, N = 6, Cycle 1 Day 8, read-out: AUCtau, Median): 843 ng·h/mL | Cmax ([1]; 6.2 mg/kg, Cohort 6: 6.2 mg/kg, N = 6, Cycle 1 Day 8, read-out: Peak plasma concentration, Mean (SD)): 1440 ng/mL | Cmax ([1]; 6.2 mg/kg, Cohort 6: 6.2 mg/kg, N = 6, Cycle 1 Day 8, read-out: Peak plasma concentration, Median): 826 ng/mL | Tmax ([1]; 6.2 mg/kg, Cohort 6: 6.2 mg/kg, N = 6, Cycle 1 Day 8, read-out: Time to peak plasma concentration, Mean (SD)): 45.8 min | AUC(0-t) ([1]; 6.2 mg/kg, Cohort 6: 6.2 mg/kg, N = 6, Cycle 1 Day 10, read-out: AUCtau, Mean (SD)): 1430 ng·h/mL | AUC(0-t) ([1]; 6.2 mg/kg, Cohort 6: 6.2 mg/kg, N = 6, Cycle 1 Day 10, read-out: AUCtau, Median): 830 ng·h/mL | Cmax ([1]; 6.2 mg/kg, Cohort 6: 6.2 mg/kg, N = 6, Cycle 1 Day 10, read-out: Peak plasma concentration, Mean (SD)): 1380 ng/mL | Cmax ([1]; 6.2 mg/kg, Cohort 6: 6.2 mg/kg, N = 6, Cycle 1 Day 10, read-out: Peak plasma concentration, Median): 794 ng/mL | Tmax ([1]; 6.2 mg/kg, Cohort 6: 6.2 mg/kg, N = 6, Cycle 1 Day 10, read-out: Time to peak plasma concentration, Mean (SD)): 36.1 min | Tmax ([1]; 6.2 mg/kg, Cohort 6: 6.2 mg/kg, N = 6, Cycle 1 Day 10, read-out: Time to peak plasma concentration, Median): 30 min | modulation of channel activity [2]: no modulation of channel activity | antigenicity [3]: no antigenicity | cardiovascular toxicity [3]: no cardiovascular toxicity | toxicity [3]: minimal toxicity | peptide degradation half-life [4]: about 1 h | antigenicity [5]: no antigenicity | cardiovascular toxicity [5]: no cardiovascular toxicity | toxicity [5]: minimal toxicity | half-life in the blood compartment [6]: < 5 min | modulation of channel activity [7]: no modulation of channel activity | half-life in the blood compartment [8]: < 5 min
